Columns and labels:
5-HT1A receptor = target: T1, 5-HT1A receptor (Rattus norvegicus, UniProt P19327); experiment: 5-HT1A receptor binding activity in rat hippocampal membrane homogenate
T1 construct: rat hippocampal membrane homogenate; from tissue; host or cells: rat hippocampal membrane homogenate
T1 sequence (P19327 1-422): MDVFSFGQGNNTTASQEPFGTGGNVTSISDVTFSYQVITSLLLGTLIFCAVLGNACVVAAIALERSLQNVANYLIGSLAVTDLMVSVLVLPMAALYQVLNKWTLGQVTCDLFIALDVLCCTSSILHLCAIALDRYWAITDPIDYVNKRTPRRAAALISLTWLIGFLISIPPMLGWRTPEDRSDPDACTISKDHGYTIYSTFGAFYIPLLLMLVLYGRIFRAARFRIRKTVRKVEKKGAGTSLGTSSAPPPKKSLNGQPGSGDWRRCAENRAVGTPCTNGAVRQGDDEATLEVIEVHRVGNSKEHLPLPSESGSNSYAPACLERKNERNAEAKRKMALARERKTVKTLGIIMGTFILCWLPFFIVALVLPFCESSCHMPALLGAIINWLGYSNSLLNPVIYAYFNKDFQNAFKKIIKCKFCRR
Description: The compounds of the invention were tested for 5-HT1A receptor binding activity in rat hippocampal membrane homogenate by the method of B S Alexander and M D Wood, J Pharm Pharmacol, 1988, 40, 888-891.

α1 = experiment: affinity for the α1 site (procedure of A L Marrow et al); assay type: binding

Compound: COc1ccccc1N1CCN(CC(C(=O)NC(C)(C)C)c2ccccn2)CC1 (stereo not shown) [Example 1, N-tert-Butyl-3-[4-(2-methoxyphenyl)piperazin-1-yl]-2-(2-pyridyl)propanamide]
- IC50 (5-HT1A receptor): 38 nM
- IC50 (α1): 2900 nM

Compound: COc1ccccc1N1CCN(CCC(C(=O)N2CCCCCC2)c2cccs2)CC1 (stereo not shown) [Example 2, 2,3,4,5,6,7-Hexahydro-1-[2-(2-thiophenyl)-4-(1-(4-(2-methoxyphenyl)piperazinyl))]butyryl-1H-azepine]
- IC50 (5-HT1A receptor): 0.8 nM
- IC50 (α1): 147 nM

Source: US5169845A, “Piperazine derivatives” (John Wyeth & Brother Limited, priority 1990, dated 1992)
